Assay results taken from US20220135940A1, “METHOD FOR PRODUCING KIDNEY STRUCTURE HAVING DENDRITICALLY BRANCHED COLLECTING DUCT FROM PLURIPOTENT STEM CELLS” (NATIONAL UNIVERSITY CORPORATION KUMAMOTO UNIVERSITY, priority 2018, published 2022).

Columns and labels:
[1] = test system: human iPS cell-derived CXCR4+/KIT+ WD progenitors; assay: Maturation culture of sorted human iPS cell-derived CXCR4+/KIT+ WD progenitors, mature WD marker genes; format: cell-based; conditions: continuous administration in addition to mouse WD maturation cocktails, 10% Matrigel
Protocol: On day 6.25, the induced spheroids were harvested and dissociated by incubating in 0.25% trypsin/EDTA for 6 minutes at 37° C. After blocking in normal mouse serum, cell surface marker (CXCR4/KIT) staining was carried out in a buffer containing 1% BSA, 1×HBSS and 0.035% NaHCO3. The FACS-sorted 5,000 of CXCR4+/KIT+ cells were seeded in a V-bottom 96-well low cell binding plate and precipitated by the centrifuge (210 G for 4 minutes). The supernatant was replaced with a medium containing 10 μM Y27632, 0.1 μM retinoic acid, 1 μM CHIR, 5 ng/mL human Fgf9, 100 ng/mL human Fgf1, 10 nM LDN193189 and 10% growth factor reduced Matrigel (“Procedure 5 medium”). On day 8.5, the spheroids were transferred to a medium containing 10 μM Y27632, 0.1 μM retinoic acid, 3 μM CHIR, 5 ng/mL human Fgf9, 1 ng/mL human GDNF, 100 ng/mL human Fgf1, 10 nM LDN193189 and 10% growth factor reduced Matrigel (“Procedure 6 medium”). […]
(§1) Harvested spheroids or cells were homogenized, and total RNA was isolated using RNeasy Plus Micro Kit (Qiagen), and then a reverse-transcribed with random primers and Superscript III (Invitrogen). Quantitative PCR was carried out using Real-Time PCR system (Takara Bio) and Thunderbird SYBR qPCR Mix (Toyobo). With normalized by β-actin gene, relative mRNA expression levels were analyzed. […]

human iPS cells [2] = assay: AIM induction from human iPS cells (procedure 3), AIM marker genes by quantitative analysis at day 4.5; format: cell-based; conditions: administered at procedure 3, day 4.5
Protocol: (§2) Cells were reaggregated at 10,000 cells per aggregate in a V-bottom 96-well low cell binding plate using a medium containing 10 μM Y27632 and 10 ng/mL human activin A and 1 ng/mL human Bmp4 (“Procedure 1 medium”), to form embryonic bodies (EBs). After 24 hours (day 1), the aggregates were transferred to a U-bottom 96-well low cell binding plate containing a medium containing 10 μM CHIR and 1 ng/mL human Bmp4 (“Procedure 2 medium”). After 36 hours (day 2.5), the medium was replaced with a medium containing 0.1 μM retinoic acid, 100 ng/mL human Fgf9, 100 nM LDN193189 and 100 μM SB431542 (“Procedure 3 medium”). On day 4.5, the medium was replaced with a medium containing 0.1 μM retinoic acid, 5 μM CHIR, 100 ng/mL human Fgf9 and 30 nM LDN193189 (“Procedure 4 medium”).
(§3) Harvested spheroids or cells were homogenized, and total RNA was isolated using RNeasy Plus Micro Kit (Qiagen), and then a reverse-transcribed with random primers and Superscript III (Invitrogen). Quantitative PCR was carried out using Real-Time PCR system (Takara Bio) and Thunderbird SYBR qPCR Mix (Toyobo). With normalized by β-actin gene, relative mRNA expression levels were analyzed.
The induction of WD from human iPS cells was performed as follows. […] This was confirmed by quantitative analysis at day 4.5 and day 6.25, respectively (FIG. 22).

human iPS cells [3] = assay: Induction of CXCR4+/KIT+ WD progenitors from human iPS cells, FACS at day 6.25; format: cell-based
Protocol: as §2
On day 6.25, the induced spheroids were harvested and dissociated by incubating in 0.25% trypsin/EDTA for 6 minutes at 37° C. After blocking in normal mouse serum, cell surface marker (CXCR4/KIT) staining was carried out in a buffer containing 1% BSA, 1×HBSS and 0.035% NaHCO3. The FACS-sorted 5,000 of CXCR4+/KIT+ cells were seeded in a V-bottom 96-well low cell binding plate and precipitated by the centrifuge (210 G for 4 minutes). The supernatant was replaced with a medium containing 10 μM Y27632, 0.1 μM retinoic acid, 1 μM CHIR, 5 ng/mL human Fgf9, 100 ng/mL human Fgf1, 10 nM LDN193189 and 10% growth factor reduced Matrigel (“Procedure 5 medium”). On day 8.5, the spheroids were transferred to a medium containing 10 μM Y27632, 0.1 μM retinoic acid, 3 μM CHIR, 5 ng/mL human Fgf9, 1 ng/mL human GDNF, 100 ng/mL human Fgf1, 10 nM LDN193189 and 10% growth factor reduced Matrigel (“Procedure 6 medium”). On day 10.5, the spheroids were transferred to a medium containing 10 μM Y27632, 0.1 μM retinoic acid, 3 μM CHIR, 2 ng/mL human GDNF, 100 ng/mL human Fgf1, 10 nM LDN193189 and 10% growth factor reduce Matrigel (“Procedure 7 medium”).
(§4) Cell aggregates induced from embryonic tissue or mouse ES cells/human iPS cells were dissociated and blocked with normal mouse serum and then cell surface marker staining was carried out in a buffer containing 1% BSA, 1×HBSS and 0.035% NaHCO3. Data analysis was performed with FlowJo software (Treestar).
Next, the optimal time window for inducing anterior or posterior intermediate mesoderm from the nascent mesoderm was examined. Since the nascent mesoderm population is maintained by the high concentrations of Wnt agonists, the incubation period with Wnt agonists was varied and the subsequent differentiation was applied with conditions specific to the UB or metanephric nephron progenitor cell lineage. The induction efficiency of CXCR4+/KIT+ WD progenitor or ITGA8+/PDGFRA− nephron progenitor cell fraction was examined at day 6.25 or day 12, respectively. […]

mouse ES cells [4] = assay: AIM induction from mouse ES cells (procedure 3), AIM marker expression; format: cell-based; conditions: Fgf9 at high concentrations
Protocol: (§5) ES cells were differentiated in a serum-free medium as follows. The ES cells were dissociated with Accutase™ (ESGRO) and cultured in a serum-free mouse ES cell differentiation medium. The harvested cells were aggregated in a 96-well U-bottom low cell binding plate at 1,000 cells per aggregate to form embryonic bodies (EBs). After 48 hours (day 2), the EBs were dissociated with Accutase and re-aggregated in a serum-free differentiation medium supplemented with 10 ng/mL human activin A (R & D) (Procedure 1). After 24 hours (day 3), the medium was replaced with a medium containing 0.3 ng/mL human Bmp4 (R & D) and 10 μM CHIR 99021 (Procedure 2). After 36 hours (day 4.5), the medium was replaced with procedure 3 medium containing 0.1 μM retinoic acid, 100 ng/mL human Fgf9 and 10 μM SB431542 (Wako). On day 5.5 (24 hours later), the medium was replaced with a medium containing 0.1 μM retinoic acid, 100 ng/mL human Fgf9 and 5 μM CHIR99021 (“Procedure 4 medium”). The differentiation factors of the Hoxb7-GFP ES cell line are shown in the table below together with the differentiation factors of the Osr1-GFP ES cell line.
as §3
Next, signaling for the AIM differentiation procedure was hypothesized, which is partially different from that for PIM, based on the gene expression profile minimally conserved, between anterior intermediate mesoderm (AIM) (Osr1+, Pax2+, Pax8+, Emx2+, Lhx1+, Gata3+) and posterior intermediate mesoderm (PIM) (Osr1+, Wtl+, Hoxll+) (Procedure 3 in FIG. 2).

[5] = test system: sorted Hoxb7-GFP positive E8.75 WD progenitors; assay: Maturation culture of sorted E8.75 WD progenitors, marker genes by qRT-PCR; format: cell-based, mouse; conditions: Wnt agonist 3 μM and Fgf9 100 ng/mL
Protocol: For embryonic tissue cultures at E8.75, the region caudal to the heart primordia of 12-15 somite-stage embryos were harvested and Hoxb7-GFP+/Flk1− cells were sorted by FACS. The sorted cells were aggregated in a V-bottom 96-well low cell binding plate at about 1,200 cells per aggregate. It was cultured for the first 24 hours using a medium containing 10 μM Y27632, 0.1 μM retinoic acid, 1 μM CHIR99021, 5 ng/mL human Fgf9 and 10% growth factor reduced Matrigel (“Procedure 5 medium”), then, the spheroids were transferred to “Procedure 6 medium” and “Procedure 7 medium,” and cultured for 24 hours each for differentiation.
as §3
As the second procedure, the factors that mature the E8.75WD into the E9.5WD were found as follows. We investigated the factors that trigger maturation of the WD progenitors in the early stage, from embryonic E8.75 to E9.5 stage. At embryonic E8.75 to E9.5 stage, the Hoxb7-GFP positive WD progenitors are first clearly detectable in the anterior body trunk of the embryo (8-10 somite level). […]

mouse ES cells [6] = assay: Induction of CXCR4+/KIT+ WD progenitors from mouse ES cells, FACS at day 6.25; format: cell-based
Protocol: as §5
On day 6.25, the induced spheroids were harvested and dissociated by incubating in 0.25% trypsin/EDTA at 37° C. for 6 minutes. After blocking in normal mouse serum, cell surface marker (CXCR4/KIT) staining was carried out in a buffer containing 1% BSA, 1×HBSS and 0.035% NaHCO3. The FACS-sorted 3,000 Hoxb7-GFP+/CXCR4+/KIT+ cells were aggregated in a V-bottom 96-well low cell binding plate to form spheroids. Subsequently, these were cultured using the above E8.75 embryonic tissue culture conditions.
as §4

[7] = test system: WD sorted from dissociated E9.5 mouse embryos; assay: Maturation culture of sorted E9.5 embryonic WD with growth factor combinations, marker genes by qRT-PCR; format: cell-based; conditions: E9.5 WD aggregates, Gdnf added to RA, Wnt agonist and Fgf9
Protocol: The posterior regions were harvested from the forelimbs of 22-26 somatic-stage embryos for embryonic tissue culture at […]. The harvested tissues were dissociated into single cells by incubating in DMEM/10% FBS containing 1 mg/mL Type XI collagenase for 6 minutes at 37° C., followed by treatment with DNase I and 0.25% trypsin at 37° C. for 6 minutes. After blocking in normal mouse serum, cell surface marker (Flk1) staining was carried out. Hoxb7-GFP+/Flk1− cells sorted by FACS were resuspended in a mouse ES cell differentiation media, and seeded in a V-bottom 96-well low cell binding plate (Sumitomo Bakelite, Co., Ltd., Cat #MS-9096V) so that there were about 1,600 cells per well. After the centrifuge (210 G, 4 min), the supernatant media was replaced with a medium containing 10 μM Y27632 (Wako), 0.1 μM retinoic acid, 3 μM CHIR99021, 5 ng/mL human Fgf9 (R & D), 1 ng/mL human GDNF (R & D) and 10% growth factor reduced Matrigel (BD) (“Procedure 6 medium”). […]
as §1

With “Fgf1: fibroblast cell growth factor, human Fgf1” the “expression of the mature WD marker genes” value [1] was “further enhanced the expression of the mature WD marker genes”.

In the case of `c1ccc2c(-c3cnn4cc(-c5ccc(N6CCNCC6)cc5)cnc34)ccnc2c1` [LDN, LDN193189, reference compound], the “AIM marker genes expression” value (human iPS cells [2]) is reported as “greatly enhanced”, the “expression of the mature WD marker genes” value [1] is reported as “further enhanced the expression of the mature WD marker genes” and the “induction of CXCR4+/KIT+ WD progenitors” value (human iPS cells [3]; administered at procedure 3, day 6.25) is reported as “greatly enhanced”.

With `NC(=O)c1ccc(-c2nc(-c3ccc4c(c3)OCO4)c(-c3ccccn3)[nH]2)cc1` [SB431542, reference compound] the “induction of AIM markers” value (mouse ES cells [4]) was “enhanced the AIM marker induction”.

For `Cc1c[nH]c(-c2cnc(NCCNc3ccc(C#N)cn3)nc2-c2ccc(Cl)cc2Cl)n1` [CHIR99021, reference compound], the “expression of maturation marker genes (Hnf1b, Wnt9b, Calb1, E-cadherin)” value [5] was “worked inhibitory” and the “induction of the CXCR4+/KIT+ population” value (mouse ES cells [6]; procedure 4, removal of the factor from RA, Wnt agonist and Fgf9) was “dramatically reduced the induction of the CXCR4+/KIT+ population”.

`CC1=C(/C=C/C(C)=C/C=C/C(C)=C/C(=O)O)C(C)(C)CCC1` [retinoic acid, all trans-retinoic acid, reference compound] was tested, and the “induction of AIM markers” value (mouse ES cells [4]) was “common inducer for both AIM and PIM induction”.

B1: Bmp4: BMP signal pathway active substance, human Bmp4 (R & D) (protein, UniProt P12644 293-408, looked up)
Bone morphogenetic protein 4: SPKHHSQRARKKNKNCRRHSLYVDFSDVGWNDWIVAPPGYQAFYCHGDCPFPLADHLNSTNHAIVQTLVNSVNSSIPKACCVPTELSAISMLYLDEYDKVVLKNYQEMVVEGCGCR
B1 was tested, and the “induction of AIM markers” value (mouse ES cells [4]) was “inhibitory to the induction of AIM markers”, the “concentration at which WD progenitor induction peaked” value (human iPS cells [3]; epiblast patterning stage (day 0 to day 1), combination of activin A and Bmp4) was 1 ng/mL and the “concentration at which UB progenitor cells were most efficiently induced” value (human iPS cells [3]; mesoderm induction/patterning with CHIR, days 1 to 2.5) was 1 ng/mL. For the same molecule, the “UB induction versus MM induction, concentration dependence” value (mouse ES cells [6]; Bmp4 in procedure 2, activin A in procedure 1) was “maximized at higher Bmp4 concentrations compared to MM”.

B2: Gdnf: glial cell line-derived neurotrophic factor, recombinant human GDNF protein (protein, UniProt P39905 78-211, looked up)
Glial cell line-derived …: SPDKQMAVLPRRERNRQAAAANPENSRGKGRRGQRGKNRGCVLTAIHLNVTDLGLGYETKEELIFRYCSGSCDAAETTYDKILKNLSRNRRLVSDKVGQACCRPIAFDDDLSFLDDNLVYHILRKHSAKRCGCI
In the case of B2, the “Wnt11 expression and bud-like structure formation” value [7] is reported as “successfully induced the Wnt11 expression and bud-like structure formation”.
